# Patent publication EP1310250A1, “Use of the compound 2-methoxyphenyl-1-methyl-5P-methylbenzoyl-pyrrol-2-acetamido acetate for the production of an antiinflammatory drug with prevention of gastric hypersecretion and renal impairment” (MEDOSAN Ricerca S.r.l., priority 1997, dated 1999)
# How the values were obtained:
# [1] = tested on: adverse events; test: Clinical trials: tolerability, adverse events and suspensions of treatment; design: species or system man; details: in vivo
# Description: Interest in the amtolmetin guacyl molecule arose following a thorough analysis of the results of 31 comparative and 6 non-comparative clinical trials involving 1596 patients. […] Turthermore the physician, being aware of administering an NSAID, was expecting adverse events and could not be expected to be an impartial observer. The few cases of gastro-intestinal phenomena reported with amtolmetin guacyl were transitory and in no event accompanied by the presence of occult blood in the stools. Moreover, even in the presence of a reported side-effect it was almost never necessary to suspend treatment (0.4% of suspensions).
# Following are summarized the results obtained on a total of 1596 patients in 37 clinical trials.
# Confirmation of the above described advantages is the very low incidence of treatment suspension for adverse events found in clinics (Table 17), which is not the case for most of NSAIDs known in the art (Table 18).
# [2] = in vivo
# [3] = tested on: basal acid secretion; test: Basal acid secretion; details: amtolmetin guacyl per se
# [4] = tested on: rheumatoid arthritis; test: Clinical trials: antiphlogistic activity in rheumatoid arthritis; format: in vivo, man; design: key to Antiphlogistic activity evaluation: excellent ^++++; good ^+++; poor ^++
# Description: Amtolmetin guacyl was compared with ibuprofen, indomethacin, piroxicam and tolmetin.
# [5] = tested on: blood pressure and cardiovascular system; test: Drug safety trials on blood pressure and cardiovascular system; details: rat, in vivo
# Description: From a toxicological viewpoint the drug offers an excellent torability profile.
# [6] = tested on: Carcinogenesis; test: Carcinogenesis studies, gavage over life-span; format: in vivo, rat; details: gavage for a period covering the animal's life-span
# [7] = tested on: fertility, embriotoxicity and teratogenicity; test: Fertility, embryotoxicity and teratogenicity studies, rat; format: in vivo
# [8] = tested on: gastric lesions; test: Clinics with before/after endoscopies; format: in vivo, man; details: especially when administered on an empty stomach
# [9] = tested on: gastric acid secretion; test: Antisecretory activity in vivo in rat, histamine-induced acid secretion
# Protocol: The methods used were those described by G Coruzzi, M. Adami, C. Pozzoli, E. Poli, G. Bertaccini (Pharmacology 1994;48: pages 69-76) and M. Leitold, W. Fleissig and A. Merk (Arzneim-Forsch/Drug Res. 34(I), Nr. 4, 1984).
# The animals were treated in oral administration with amtolmetin guacyl 50 or 100 mg/kg, 1 h before the beginning of the perfusion with histamine. The controls received only the vehicle (CMC 1%).
# After anaesthesia with urethan (1.25 g/kg i.p.), the oesophagus was ligated close to the stomach. Two cannulas of polyethylene are then inserted: one was inserted in the forestomach, the second one was inserted directly into the pyloric sphincter. The stomach was flushed with saline at 37°C (1 ml/min) and the flushed liquid, collected every 15 minutes, titred at ph 7 with NaOH 10^-2 M. The acid secretion was induced by an intravenous infusion (0.1 ml/min) of histamine (30 µmol/kg/h).
# The acidity is expressed as µEqH^+/15 min.
# [10] = tested on: Adjuvant arthritis; test: Adjuvant arthritis: joint inflammation and patellar bone erosion; format: in vivo, rats; details: patellar bone mass; MED 15 25, 50, 100mg/kg, piroxicam 3mg/kg
# Protocol: The drugs were administered daily by oral gavage for 4 days (day 0-3); piroxicam and MED 15 were dissolved in 5% Gum arabic + 0.01% Tween 80, and administered in a volume of 0.5ml. Piroxicam was administered as 3mg/kg and MED 15 was administered as 25, 50 and 100mg/kg doses. Table 8 bis illustrating dosage regimes. L=left stifle joint, R=Right stifle joint.
# Under halothane anaesthesia, rats received 200µg of heat-killed finely ground Mycobactyerium tubercolosis in 25µl (80mg/10ml sterile saline) injected intra-articulary into the left stifle joint. The contralateral joint received 25µl 0.9% sterile saline. Control animals received 25µl of 0.9% sterile saline in both knees. SGE 50µl microsyringes with a volume lock calibrated at 25µl were used with 30G stainless steel needles. Solutions were prepared sterile, and aseptic technique was used throughout, with sterilisation of syringes between groups.
# The rats were killed by carbon dioxide suffocation. The body weight was noted and the skin overlying the stifle joints was divided and the joint diameters assessed in mm using Mitutoyo vernier callipers (530-312, 0.02mm).
# The patellae were dissected, weighed (Sartorius, 0.01mg) and then immersed in 1ml digestion buffer (see below) to remove soft tissue.
# Digestive buffer was prepared fresh to the following formula; disodium hydrogen orthophosphate 20mM, EDTA 1mM and diothiothreitol at 2mM. […]
# [11] = tested on: carrageenin-induced paw oedema; test: Determination of ID50, carrageenin-induced paw oedema; format: in vivo, rat; details: five times the oral ID50 for oedema inhibition, 2 h after carrageenin
# Protocol: ID50, relative to the products under examination (considered in table 1), has been evaluated using the anti-inflammatory response to carrageenin-induced paw oedema (according to Wong et al, J Pharmacol Exp, 1973:1855; pages 127-138). The products, suspended in 1% CMC, were administered orally in a total volume of 5 ml/rat. 1 h later, 0.1 ml of 1% carrageenin sterile solution was injected into the hind subplantar aponeurosis. Volume of the paw was measured immediately prior to injection of the phlogogen and 2 h thereafter, by means of a plethysmograph. The percentage of inhibition of oedema was calculated as follows: 1 - ΔV treated/ΔV control x 100 [formula] where ΔV = final V - initial V.
# [12] = tested on: CGRP (calcitonin gene related peptide); test: Peptone-stimulated gastric acid secretion after treatment with CGRP8-37; format: in vivo, rat; details: peptone-stimulated gastric acid secretion (fig. 14)
structure (smiles),measurement,setting,value
"COc1ccccc1OC(=O)CNC(=O)Cc1ccc(C(=O)c2ccc(C)cc2)n1C [amtolmetin guacyl, 2-methoxyphenyl-1-methyl-5p-methylbenzoylpyrrol-2-acetamido acetate]",Treatment suspended %,[1]; human,"0,4%"
same,suspensions of treatment,[1]; human,0.4%
same,variations of the routine biological parameters,[1],no significant variations of the routine biological parameters were observed
same,drug tolerability,[2],excellent drug tolerability
same,effect on basal acid secretion,[3],fails to modify basal acid secretion
same,Evaluation of antiphlogistic activity,"[4]; 150 patients, 30 days, versus Ibuprofen, Indomethacin, Piroxicam, Tolmetin",Amtolmetin guacyl demonstrated statistical significant activity more rapid and more marked when compared to the reference NSAIDs in rheumatoid arthritis.
same,Antiphlogistic activity evaluation,[4]; Rheumatoid arthritis,^++++
same,effects on blood pressure and on the cardiovascular system,[5],absence of effects on blood pressure and on the cardiovascular system
same,Carcinogenesis,[6],innocuity of the product
same,"fertility, embriotoxicity and teratogenicity",[7],demonstrated the safety product
same,induction of gastric lesions,[8],not to induce gastric lesions
same,acidity,"[9]; 50 mg/kg oral 1 h before histamine perfusion, time 0 min",4 µEqH^+/15'
same,acidity,"[9]; 50 mg/kg oral 1 h before histamine perfusion, time 15 min",4 µEqH^+/15'
same,acidity,"[9]; 50 mg/kg oral 1 h before histamine perfusion, time 30 min",5 µEqH^+/15'
same,acidity,"[9]; 50 mg/kg oral 1 h before histamine perfusion, time 45 min",11 µEqH^+/15'
same,acidity,"[9]; 50 mg/kg oral 1 h before histamine perfusion, time 60 min",15 µEqH^+/15'
same,acidity,"[9]; 50 mg/kg oral 1 h before histamine perfusion, time 75 min",17 µEqH^+/15'
same,acidity,"[9]; 50 mg/kg oral 1 h before histamine perfusion, time 90 min",19 µEqH^+/15'
same,acidity,"[9]; 50 mg/kg oral 1 h before histamine perfusion, time 105 min",18.5 µEqH^+/15'
same,acidity,"[9]; 50 mg/kg oral 1 h before histamine perfusion, time 120 min",22 µEqH^+/15'
same,acidity,"[9]; 50 mg/kg oral 1 h before histamine perfusion, time 135 min",20 µEqH^+/15'
same,acidity,"[9]; 100 mg/kg oral 1 h before histamine perfusion, time 0 min",8 µEqH^+/15'
same,acidity,"[9]; 100 mg/kg oral 1 h before histamine perfusion, time 15 min",7 µEqH^+/15'
same,acidity,"[9]; 100 mg/kg oral 1 h before histamine perfusion, time 30 min",9 µEqH^+/15'
same,acidity,"[9]; 100 mg/kg oral 1 h before histamine perfusion, time 45 min",11 µEqH^+/15'
same,acidity,"[9]; 100 mg/kg oral 1 h before histamine perfusion, time 60 min",12 µEqH^+/15'
same,acidity,"[9]; 100 mg/kg oral 1 h before histamine perfusion, time 75 min",13 µEqH^+/15'
same,acidity,"[9]; 100 mg/kg oral 1 h before histamine perfusion, time 90 min",14 µEqH^+/15'
same,acidity,"[9]; 100 mg/kg oral 1 h before histamine perfusion, time 105 min",15 µEqH^+/15'
same,acidity,"[9]; 100 mg/kg oral 1 h before histamine perfusion, time 120 min",13 µEqH^+/15'
same,acidity,"[9]; 100 mg/kg oral 1 h before histamine perfusion, time 135 min",14 µEqH^+/15'
same,protection against bone loss,[10],dose dependent protective effect
same,Ratio to rat dosage (mg/kg) (ID50 mg/kg x5),[11],100 mg/kg
same,effect of the CGRP antagonist CGRP8-37 on the activity on gastric secretion,[12],blockage of the amtolmetin guacyl - related activity on gastric secretion
